± gives the expanded uncertainty stated by the source.
Test: xn = mol fraction of the nth substance listed
Details: Liquid

CCOC(F)(C(F)(F)C(F)(F)C(F)(F)F)C(F)(C(F)(F)F)C(F)(F)F (stereo not given) [2-trifluoromethyl-3-ethoxydodecafluorohexane] + CC(C)OC(C)C
viscosity [mPa·s]
Details	x1 = 0.25	x1 = 0.375	x1 = 0.5	x1 = 0.625	x1 = 0.75	x1 = 1
293.15 K, 100 kPa, Capillary tube (Ostwald / Ubbelohde) method	0.483 ± 0.01	0.573 ± 0.012	0.685 ± 0.014	0.818 ± 0.017	0.985 ± 0.021	1.369 ± 0.029
293.15 K, 20000 kPa, Falling or rolling sphere viscometry	0.602 ± 0.013	0.751 ± 0.017	0.939 ± 0.021	1.1 ± 0.024	1.315 ± 0.029	1.894 ± 0.043
293.15 K, 40000 kPa, Falling or rolling sphere viscometry	0.732 ± 0.016	0.944 ± 0.021	1.198 ± 0.026	1.412 ± 0.031	1.727 ± 0.038	2.645 ± 0.059
293.15 K, 60000 kPa, Falling or rolling sphere viscometry	0.883 ± 0.019	1.171 ± 0.026	1.49 ± 0.033	1.802 ± 0.04	2.255 ± 0.05	3.622 ± 0.081
293.15 K, 80000 kPa, Falling or rolling sphere viscometry	1.058 ± 0.023	1.435 ± 0.031	1.82 ± 0.04	2.291 ± 0.05	2.936 ± 0.065	4.894 ± 0.11
293.15 K, 100000 kPa, Falling or rolling sphere viscometry	1.26 ± 0.028	1.741 ± 0.038	2.197 ± 0.048	2.902 ± 0.064	3.814 ± 0.085	6.553 ± 0.14
313.15 K, 100 kPa, Capillary tube (Ostwald / Ubbelohde) method	0.386 ± 0.008	0.441 ± 0.009	0.526 ± 0.011	0.617 ± 0.013	0.735 ± 0.015	0.983 ± 0.021
313.15 K, 20000 kPa, Falling or rolling sphere viscometry	0.476 ± 0.01	0.598 ± 0.013	0.701 ± 0.015	0.821 ± 0.018	0.979 ± 0.022	1.356 ± 0.03
313.15 K, 40000 kPa, Falling or rolling sphere viscometry	0.587 ± 0.013	0.748 ± 0.016	0.894 ± 0.02	1.059 ± 0.023	1.292 ± 0.029	1.869 ± 0.042
313.15 K, 60000 kPa, Falling or rolling sphere viscometry	0.712 ± 0.016	0.917 ± 0.02	1.118 ± 0.024	1.339 ± 0.029	1.668 ± 0.037	2.51 ± 0.056
313.15 K, 80000 kPa, Falling or rolling sphere viscometry	0.853 ± 0.019	1.104 ± 0.024	1.376 ± 0.03	1.669 ± 0.037	2.119 ± 0.047	3.31 ± 0.073
313.15 K, 100000 kPa, Falling or rolling sphere viscometry	1.014 ± 0.022	1.312 ± 0.029	1.677 ± 0.037	2.058 ± 0.045	2.663 ± 0.059	4.307 ± 0.096
333.15 K, 100 kPa, Capillary tube (Ostwald / Ubbelohde) method	0.311 ± 0.007	0.356 ± 0.008	0.416 ± 0.009	0.486 ± 0.01	0.574 ± 0.012	0.739 ± 0.016
333.15 K, 20000 kPa, Falling or rolling sphere viscometry	0.393 ± 0.009	0.488 ± 0.011	0.56 ± 0.012	0.644 ± 0.014	0.754 ± 0.017	1.032 ± 0.023
333.15 K, 40000 kPa, Falling or rolling sphere viscometry	0.491 ± 0.011	0.604 ± 0.013	0.707 ± 0.015	0.826 ± 0.018	0.982 ± 0.022	1.41 ± 0.031
333.15 K, 60000 kPa, Falling or rolling sphere viscometry	0.595 ± 0.013	0.735 ± 0.016	0.875 ± 0.019	1.035 ± 0.023	1.252 ± 0.027	1.87 ± 0.041
333.15 K, 80000 kPa, Falling or rolling sphere viscometry	0.706 ± 0.015	0.884 ± 0.019	1.067 ± 0.023	1.277 ± 0.028	1.574 ± 0.034	2.427 ± 0.053
333.15 K, 100000 kPa, Falling or rolling sphere viscometry	0.822 ± 0.018	1.051 ± 0.023	1.283 ± 0.028	1.557 ± 0.034	1.958 ± 0.043	3.105 ± 0.068
353.15 K, 100 kPa, Capillary tube (Ostwald / Ubbelohde) method	–	–	–	–	0.465 ± 0.01	0.576 ± 0.012
353.15 K, 20000 kPa, Falling or rolling sphere viscometry	0.34 ± 0.007	0.399 ± 0.009	0.442 ± 0.01	0.499 ± 0.011	0.591 ± 0.013	0.799 ± 0.018
353.15 K, 40000 kPa, Falling or rolling sphere viscometry	0.428 ± 0.009	0.508 ± 0.011	0.578 ± 0.013	0.66 ± 0.015	0.773 ± 0.017	1.084 ± 0.024
353.15 K, 60000 kPa, Falling or rolling sphere viscometry	0.517 ± 0.011	0.622 ± 0.014	0.724 ± 0.016	0.836 ± 0.018	0.997 ± 0.022	1.418 ± 0.031
353.15 K, 80000 kPa, Falling or rolling sphere viscometry	0.61 ± 0.013	0.739 ± 0.016	0.879 ± 0.019	1.025 ± 0.022	1.245 ± 0.027	1.808 ± 0.04
353.15 K, 100000 kPa, Falling or rolling sphere viscometry	0.706 ± 0.015	0.855 ± 0.019	1.037 ± 0.022	1.223 ± 0.027	1.504 ± 0.033	2.265 ± 0.049
